Experimental data reported in patent publication US20240261253A1, “DAUR[…] AND IT'S USE IN MEDICINE” (Phytotherapeutix Ltd., priority 2021, published 2024).
Converted amounts (≈) assume the structure as drawn. Like-named read-outs stand apart in the source and are kept apart here.

Experiments:
Human Coronavirus OC43 = experiment: inhibition of HCoV OC43 infection in H292 cells (CPE/cell viability assay); type: cell-based, Human Coronavirus OC43 (Beta); conditions: for efficacy against HCoV OC43: H292 cells
Description: (§1) A dilution series of each test compound (8-point, 10-fold dose titration) was added prophylactically for one hour, to cells. Cells were infected with virus for one hour, at a single concentration (100×TCID50 (Median Tissue Culture Infectious Dose). Additional media was added to the wells, with equivalent concentrations of compound added in for the duration of the study. Vehicle and positive control wells were set up to control for any influence of the compounds alone on cell viability. Cells were visually inspected for the appearance of any cytopathic effects (CPE). A cell viability assay was performed once CPE was complete.
(§2) Inhibition was calculated as follows: […]
(§3) where: • A: mean optical density of test, • B: mean optical density of virus controls, • C: mean optical density of cell controls. • Negative values occur when A<B, due either to natural variation or compound toxicity.
(§4) • EC50: The concentration which results in 50% viral inhibition, following the addition of compounds. • CC50: The concentration which results in 50% cell viability, following the addition of compounds.
(§5) • 1. Cells permissible to infection, indicated in the Conditions Table, were grown and seeded into 96-well plates to a confluency of 80-90%. • 2. The test compounds were serially diluted 10-fold into 8 concentrations in total. The serial dilution was added to the cells for 1 hour prior to infection with each virus. Positive control compounds were included using the same treatment regimen. • 3. After pre-treatment, each virus was added to the cells for 1 h at 100×TCID50. A mock infection of blank media was added to the uninfected controls. • 4. After infection, the virus/media was removed and an overlay medium was added, with equivalent concentrations of the test compounds added in. • 5. […] A cell viability assay was performed on all conditions, with cells receiving the test treatment compared to the vehicle treated and uninfected controls.

H292 cells = experiment: cytotoxicity (cell viability) in H292 cells; type: cell-based; conditions: 5 days
Description: as §1, §4, §5

[1] = cytotoxicity (cell viability) in H292 cells; type: cell-based; conditions: human, read-out: CC50 (50% cell viability)
Description: as §1, §4, §5

16HBE cells = experiment: cytotoxicity (cell viability) in 16HBE cells; type: cell-based; conditions: 5 days
Description: as §1, §4, §5

[2] = cytotoxicity (cell viability) in 16HBE cells; type: cell-based; conditions: human, read-out: CC50 (50% cell viability)
Description: as §1, §4, §5

HIV = conditions: cited from earlier work
uninfected H9 cells = conditions: cited from earlier work
[3] = 5 mg/kg i.p., rodents; cited from earlier work
Human Coronavirus 229E = experiment: inhibition of HCoV 229E infection in 16HBE cells (CPE/cell viability assay); type: cell-based, Human Coronavirus 229E (Alpha)
Description: as §1, §2, §3, §4
• 1. Cells permissible to infection, indicated in the Conditions Table, were grown and seeded into 96-well plates to a confluency of 80-90%. • 2. The test compounds were serially diluted 10-fold into 8 concentrations in total. […]

For CC(C)=CCC/C(C)=C/CCC1(C)C=Cc2c(cc(C)c(C(=O)O)c2O)O1 (racemic) [1:1 mixture of (+)-DCA with (−)-DCA, (E)-2-(4,8-dimethylnona-3,7-dien-1-yl)-5-hydroxy-2,7-dimethyl-2H-chromene-6-carboxylic acid], the “efficacy against HCoV OC43” value (Human Coronavirus OC43; listed as 1:1 mix of both) was “Efficacy was seen”, the “CC50 (50% cell viability)” value (H292 cells) was 5.938 µg/mL and the CC50 at 5 days [1] was 5.9 µg/mL. The “CC50 (50% cell viability)” value (16HBE cells) was 8.225 µg/mL and the CC50 at 5 days [2] was 8.2 µg/mL.

For CC(C)=CCC/C(C)=C/CCC1(C)C=Cc2c(cc(C)c(C(=O)O)c2O)O1 (stereo in doubt) [(−)-DCA, (−)-(2S)-2-[(3E)-4,8-dimethylnona-3,7-dienyl]-5-hydroxy-2,7-dimethylchromene-6-carboxylic acid], the EC50 (Human Coronavirus OC43; Betacoronavirus 1, OC43, NCI-H292, 120 h, read-out: EC50 (50% viral inhibition), HCoV OC43, H292 cells, 5 days) was 4.39 µg/mL, the “efficacy against HCoV OC43” value (Human Coronavirus OC43) was “Efficacy was seen” and the “EC50 (50% viral inhibition)” value (Human Coronavirus OC43; HCoV OC43, H292 cells, 5 days) was 4.382 µg/mL (≈ 11.8 µM). For the same molecule, the CC50 at 5 days [1] was 15.1 µg/mL (≈ 40.8 µM) and the CC50 at 5 days [2] was 35.7 µg/mL (≈ 96.4 µM).

In the case of CC(C)=CCC/C(C)=C/CC[C@@]1(C)C=Cc2c(cc(C)c(C(=O)O)c2O)O1 [(+)-DCA, (S,E)-2-(4,8-dimethylnona-3,7-dien-1-yl)-5-hydroxy-2,7-dimethyl-2H-chromene-6-carboxylic acid], the “anti-HIV activity EC50” value (HIV; acutely infected H9 cells) is listed as 5.67 ng/mL, the “efficacy against HCoV OC43” value (Human Coronavirus OC43) is listed as “Efficacy was seen” and the CC50 at 5 days [1] is listed as 9.27 µg/mL (≈ 25 µM). For the same molecule, the CC50 at 5 days [2] was 20.7 µg/mL (≈ 55.9 µM) and the “inhibition of uninfected H9 growth EC50” value (uninfected H9 cells) was 21.1 µg/mL.

For CCCCCc1cc2c(c(O)c1C(=O)O)C=CC(C)(CCC=C(C)C)O2 (centres unmarked) [CBCA, 5-hydroxy-2-methyl-2-(4-methylpent-3-enyl)-7-pentylchromene-6-carboxylic acid], the “plasma Cmax” value [3] is listed as “approx. 4 μg/mL” and the side effects [3] is listed as “without any major side effects”.

With CCC(CC)COC(=O)[C@H](C)N[P@](=O)(OC[C@H]1O[C@@](C#N)(c2ccc3c(N)ncnn23)[C@H](O)[C@@H]1O)Oc1ccccc1 [Remdesivir, reference compound] the EC50 (Human Coronavirus OC43; Betacoronavirus 1, OC43, NCI-H292, 120 h, HCoV OC43, H292 cells, 5 days, read-out: EC50 (50% viral inhibition)) was 0.029 µg/mL, the EC50 (Human Coronavirus OC43; Betacoronavirus 1, OC43, NCI-H292, HCoV OC43, read-out: EC50) was 10 to 100 nM and the EC50 (Human Coronavirus 229E; 16HBE, read-out: EC50) was 10 to 100 nM. It also gave an EC50 (Human Coronavirus 229E; 120 h, 16HBE cells, 5 days, read-out: EC50 (50% viral inhibition)) of 0.023 µg/mL.

For CC(C)=CCC[C@@]1(C)[C@@H]2CC[C@]3(C)Oc4cc(C)c(C(=O)O)c(O)c4[C@H]1[C@H]23 [Rhododaurichromanic acid A], the “anti-HIV activity EC50” value (HIV; in vitro) is listed as 370 ng/mL.

In the case of CC(C)=CCC[C@]1(C)[C@@H]2CC[C@]3(C)Oc4cc(C)c(C(=O)O)c(O)c4[C@H]1[C@H]23 [Rhododaurichromanic acid B], the anti-HIV activity (HIV; in vitro) is listed as “no anti-HIV activity”.
